Data taken from US5510247A, “Centrifugal multiphase systems and method for using the same” (University of Pittsburgh, priority 1993, dated 1996).

Key:
phosphotriesterase [1] = target: T1, phosphotriesterase (Brevundimonas diminuta, UniProt P0A434); experiment: Batch Michaelis-Menten kinetics of phosphotriesterase with pesticide substrates in Tween 85 reversed micelles and in Tris-HCl buffer; assay type: biochemical; set-up: made in house
Procedure: Solutions of micelles were prepared in the following manner: 8 ml isopropanol was added to 13 g Tween 85 and Hexane was added to achieve a mixture of 50 ml. Water or Tris-HCl buffer (0.05M, pH 7.0) and hexane were added to this mixture to yield the desired system. […] Appropriate volumes were mixed to fill 1 ml quartz cuvettes, and the reaction was followed in a spectrophotometer. (Perkin Elmer Lambda 3). Michaelis-Menten kinetic constants (discussed below) were found by non-linear regression analysis of the initial rate data.
Enzymes function as catalysts in solution by lowering the free energy of the transition state in a reaction. Like conventional catalysts, the enzyme facilitates the reaction, but is in no way altered, so that when the reaction is completed, it is available to catalyze the conversion of more substrate molecules. When a single substrate is converted to product, the schematic of the reaction can be written [drawing 2] where S and P are substrate and product, respectively, and ES is an enzyme substrate complex. When the substrate concentration is much higher than the enzyme concentration, the enzyme is said to obey the Michaelis-Menten relationship describing the reaction rate, [formula] where (E) is the total enzyme concentration and (S) is the initial substrate concentration. KM is the saturation constant, and is a function of the individual rate constants, [formula] KM has the physical meaning as the substrate concentration which yields half the maximal reaction rate (Vmax), which is dependent on the catalytic rate constant of the chemcial step, k2, as well as the enzyme concentration,
Initial experiments were performed using paraoxon, parathion and methyl paraoxon. The effect of micelle size, pH, ionic strength and temperature have been investigated.

phosphotriesterase [2] = target: T1, phosphotriesterase; experiment: Enzyme activity for paraoxon degradation and enzyme partitioning in the two-phase organic/reverse micelle system (Tween rich heavy phase, excess hexane phase); assay type: biochemical; set-up: made in house; conditions: Tween rich heavy phase of the organic/reverse micelle two-phase system
From the text: As set forth above, if the products of the reaction are more soluble in the organic phase than in an aqueous phase, it is preferable to choose a system with an excess of organic phase to facilitate product removal. Such a region can be found, for example, in FIG. 2C in the lower left hand corner of the phase diagram. This region is illustrated in FIG. 12 as the shaded area.
In this region, close to the single phase region, reverse micelles form with an excess hexane phase which has a low concentration (<15 mM) of Tween with adsorbed water.

phosphotriesterase [3] = target: T1, phosphotriesterase
[4] = Tris-HCl buffer, 10% Methanol added to enhance solubility

Q: Which Km (phosphotriesterase [1]; Tris-HCl buffer) does the source give for `COP(=O)(OC)Oc1ccc([N+](=O)[O-])cc1` [METHYL PARAOXON, methyl paraoxon] here?
A: Its Km is 0.146 mM.

Q: What about the Vmax (phosphotriesterase [1]; Tris-HCl buffer) of the same compound?
A: Its Vmax is 2293 µmol/mg/min.

Q: And the kcat (phosphotriesterase [1]; Tris-HCl buffer)?
A: Its kcat is 1509 s⁻¹.

Q: And the “kcat /KM” value (phosphotriesterase [1]; Tris-HCl buffer)?
A: Its value is 10,340 mM^-1 s^-1.

Q: And the Km (phosphotriesterase [1]; micelles, Wo 5.5)?
A: Its Km is 17.2 ± 3.2 mM.

Q: What about the Vmax (phosphotriesterase [1]; micelles, Wo 5.5) of the same compound?
A: The Vmax was 26.5 ± 2.8 µmol/mg/min.

Q: And the kcat (phosphotriesterase [1]; micelles, Wo 5.5)?
A: The kcat was 17 s⁻¹.

Q: And the “kcat /KM” value (phosphotriesterase [1]; micelles, Wo 5.5)?
A: Its value is 1.0 mM⁻¹ s⁻¹.

Q: What about the Km (phosphotriesterase [1]; micelles, Wo 28) of the same compound?
A: The Km was 15.6 ± 2 mM.

Q: What about the Vmax (phosphotriesterase [1]; micelles, Wo 28) of the same compound?
A: The Vmax was 43.2 ± 2.4 µmol/mg/min.

Q: And the kcat (phosphotriesterase [1]; micelles, Wo 28)?
A: The kcat was 28 s⁻¹.

Q: What about the “kcat /KM” value (phosphotriesterase [1]; micelles, Wo 28) of the same compound?
A: Its value is 1.182 mM⁻¹ s⁻¹.

Q: What about the Km (phosphotriesterase [1]; micelles, Wo 46) of the same compound?
A: Its Km is 15.3 ± 1.9 mM.

Q: And the Vmax (phosphotriesterase [1]; micelles, Wo 46)?
A: Its Vmax is 53.1 ± 3.0 µmol/mg/min.

Q: And the kcat (phosphotriesterase [1]; micelles, Wo 46)?
A: Its kcat is 35 s⁻¹.

Q: And the “kcat /KM” value (phosphotriesterase [1]; micelles, Wo 46)?
A: The value was 2.28 mM⁻¹ s⁻¹.

Q: What about the Km (phosphotriesterase [1]; micelles, Wo 66) of the same compound?
A: The Km was 37.2 ± 11 mM.

Q: What about the Vmax (phosphotriesterase [1]; micelles, Wo 66) of the same compound?
A: Its Vmax is 192 ± 37 µmol/mg/min.

Q: What about the kcat (phosphotriesterase [1]; micelles, Wo 66) of the same compound?
A: Its kcat is 126 s⁻¹.

Q: What about the “kcat /KM” value (phosphotriesterase [1]; micelles, Wo 66) of the same compound?
A: Its value is 3.35 mM⁻¹ s⁻¹.

Q: What about the Km (phosphotriesterase [1]; micelles, Wo 82) of the same compound?
A: Its Km is 32.9 ± 8.9 mM.

Q: What about the Vmax (phosphotriesterase [1]; micelles, Wo 82) of the same compound?
A: Its Vmax is 225 ± 38 µmol/mg/min.

Q: What about the kcat (phosphotriesterase [1]; micelles, Wo 82) of the same compound?
A: The kcat was 148 s⁻¹.

Q: What about the “kcat /KM” value (phosphotriesterase [1]; micelles, Wo 82) of the same compound?
A: Its value is 4.5 mM⁻¹ s⁻¹.

Q: What about the Km (phosphotriesterase [1]; micelles, Wo 122) of the same compound?
A: The Km was 50 ± 19 mM.

Q: What about the Vmax (phosphotriesterase [1]; micelles, Wo 122) of the same compound?
A: Its Vmax is 397 ± 111 µmol/mg/min.

Q: What about the kcat (phosphotriesterase [1]; micelles, Wo 122) of the same compound?
A: Its kcat is 261 s⁻¹.

Q: What about the “kcat /KM” value (phosphotriesterase [1]; micelles, Wo 122) of the same compound?
A: The value was 5.2 mM⁻¹ s⁻¹.

Q: With `CCOP(=O)(OCC)Oc1ccc([N+](=O)[O-])cc1` [PARAOXON, Paraoxon] as the compound, how does the Vmax (phosphotriesterase [1]; Tris-HCl buffer) read?
A: The Vmax was 1.686 ± 42 µmol/mg/min.

Q: And the kcat (phosphotriesterase [1]; Tris-HCl buffer)?
A: The kcat was 1,110 ± 28 s^-1.

Q: And the “kcat /KM” value (phosphotriesterase [1]; Tris-HCl buffer)?
A: The value was 58,421 mM^-1 s^-1.

Q: What about the Km (phosphotriesterase [1]; micelles, Wo 6.9) of the same compound?
A: The Km was 14.3 ± 3.4 mM.

Q: What about the Vmax (phosphotriesterase [1]; micelles, Wo 6.9) of the same compound?
A: Its Vmax is 107 ± 12 µmol/mg/min.

Q: And the kcat (phosphotriesterase [1]; micelles, Wo 6.9)?
A: Its kcat is 70.3 ± 7.9 s⁻¹.

Q: What about the “kcat /KM” value (phosphotriesterase [1]; micelles, Wo 6.9) of the same compound?
A: The value was 4.9 mM⁻¹ s⁻¹.

Q: And the Km (phosphotriesterase [1]; micelles, Wo 30)?
A: Its Km is 28.9 ± 3.8 mM.

Q: What about the Vmax (phosphotriesterase [1]; micelles, Wo 30) of the same compound?
A: The Vmax was 430 ± 28 µmol/mg/min.

Q: What about the kcat (phosphotriesterase [1]; micelles, Wo 30) of the same compound?
A: The kcat was 283 ± 18.4 s⁻¹.

Q: What about the “kcat /KM” value (phosphotriesterase [1]; micelles, Wo 30) of the same compound?
A: Its value is 9.8 mM⁻¹ s⁻¹.

Q: And the Km (phosphotriesterase [1]; micelles, Wo 45)?
A: The Km was 31.2 ± 8.2 mM.

Q: And the Vmax (phosphotriesterase [1]; micelles, Wo 45)?
A: Its Vmax is 556 ± 80 µmol/mg/min.

Q: What about the kcat (phosphotriesterase [1]; micelles, Wo 45) of the same compound?
A: The kcat was 366 ± 53 s⁻¹.

Q: And the “kcat /KM” value (phosphotriesterase [1]; micelles, Wo 45)?
A: The value was 11.8 mM⁻¹ s⁻¹.

Q: What about the Km (phosphotriesterase [1]; micelles, Wo 69) of the same compound?
A: Its Km is 34.8 ± 9 mM.

Q: What about the Vmax (phosphotriesterase [1]; micelles, Wo 69) of the same compound?
A: Its Vmax is 992 ± 149 µmol/mg/min.

Q: And the kcat (phosphotriesterase [1]; micelles, Wo 69)?
A: The kcat was 653 ± 98 s⁻¹.

Q: What about the “kcat /KM” value (phosphotriesterase [1]; micelles, Wo 69) of the same compound?
A: The value was 18.8 mM⁻¹ s⁻¹.

Q: What about the Km (phosphotriesterase [1]; micelles, Wo 86) of the same compound?
A: The Km was 33.3 ± 6.7 mM.

Q: And the kcat (phosphotriesterase [1]; micelles, Wo 86)?
A: Its kcat is 789 ± 86 s⁻¹.

Q: And the “kcat /KM” value (phosphotriesterase [1]; micelles, Wo 86)?
A: The value was 23.7 mM⁻¹ s⁻¹.

Q: And the Km (phosphotriesterase [1]; micelles, Wo 125)?
A: Its Km is 29.5 ± 8.3 mM.

Q: What about the Vmax (phosphotriesterase [1]; micelles, Wo 125) of the same compound?
A: Its Vmax is 1.753 ± 259 µmol/mg/min.

Q: And the kcat (phosphotriesterase [1]; micelles, Wo 125)?
A: The kcat was 1150 ± 170 s⁻¹.

Q: What about the “kcat /KM” value (phosphotriesterase [1]; micelles, Wo 125) of the same compound?
A: The value was 39.1 mM⁻¹ s⁻¹.

Q: And the Km (phosphotriesterase [2])?
A: The Km was 32 mM.

Q: And the kcat (phosphotriesterase [2])?
A: The kcat was 975 s⁻¹.

Q: `CCOP(=S)(OCC)Oc1ccc([N+](=O)[O-])cc1` [PARATHION, Parathion] was tested. Which Km (phosphotriesterase [1]; [4]) did it give?
A: The Km was 0.35 ± 0.08 mM.

Q: What about the Vmax (phosphotriesterase [1]; [4]) of the same compound?
A: Its Vmax is 2850 ± 540 µmol/mg/min.

Q: What about the kcat (phosphotriesterase [1]; [4]) of the same compound?
A: Its kcat is 1870 ± 360 s⁻¹.

Q: And the “kcat /KM” value (phosphotriesterase [1]; [4])?
A: The value was 5,340 mM^-1 s^-1.

Q: What about the Km (phosphotriesterase [1]; micelles, Wo 6) of the same compound?
A: Its Km is 81 ± 16 mM.

Q: And the Vmax (phosphotriesterase [1]; micelles, Wo 6)?
A: The Vmax was 1.37 ± 0.15 µmol/mg/min.

Q: What about the kcat (phosphotriesterase [1]; micelles, Wo 6) of the same compound?
A: Its kcat is 0.90 ± 0.10 s⁻¹.

Q: And the “kcat /KM” value (phosphotriesterase [1]; micelles, Wo 6)?
A: Its value is 0.011 mM⁻¹ s⁻¹.

Q: What about the Vmax (phosphotriesterase [1]; micelles, Wo 29) of the same compound?
A: Its Vmax is 9.7 ± 1.4 µmol/mg/min.

Q: And the kcat (phosphotriesterase [1]; micelles, Wo 29)?
A: The kcat was 6.4 ± 0.9 s⁻¹.

Q: And the “kcat /KM” value (phosphotriesterase [1]; micelles, Wo 29)?
A: Its value is 0.054 mM⁻¹ s⁻¹.

Q: And the Vmax (phosphotriesterase [1]; micelles, Wo 45)?
A: Its Vmax is 14.7 ± 2.4 µmol/mg/min.

Q: What about the kcat (phosphotriesterase [1]; micelles, Wo 45) of the same compound?
A: The kcat was 9.7 ± 1.6 s⁻¹.

Q: And the “kcat /KM” value (phosphotriesterase [1]; micelles, Wo 45)?
A: The value was 0.074 mM⁻¹ s⁻¹.

Q: What about the Vmax (phosphotriesterase [1]; micelles, Wo 70) of the same compound?
A: The Vmax was 28 ± 17 µmol/mg/min.

Q: What about the kcat (phosphotriesterase [1]; micelles, Wo 70) of the same compound?
A: The kcat was 18 ± 11 s⁻¹.

Q: What about the “kcat /KM” value (phosphotriesterase [1]; micelles, Wo 70) of the same compound?
A: Its value is 0.082 mM⁻¹ s⁻¹.

Q: And the Vmax (phosphotriesterase [1]; micelles, Wo 85)?
A: Its Vmax is 52 ± 28 µmol/mg/min.

Q: What about the kcat (phosphotriesterase [1]; micelles, Wo 85) of the same compound?
A: The kcat was 34 ± 18 s⁻¹.

Q: And the “kcat /KM” value (phosphotriesterase [1]; micelles, Wo 85)?
A: The value was 0.082 mM⁻¹ s⁻¹.

Q: `OCCO` [ethylene glycol] was tested. Which “effect on enzyme activity” value (phosphotriesterase [3]; micelles prepared with it as a cosurfactant) did it give?
A: Its value is “enhanced enzyme activity”.

Q: How did the “effect on activity of phosphotriesterase” value (phosphotriesterase [3]; in buffer) turn out when `CC(C)O` [isopropanol] was run?
A: Its value is “reduce the activity”.
